The target in experiment [1] is 5-hydroxytryptamine receptor 7 (Homo sapiens, UniProt P34969). Put plainly: Agonist activity at 5-carboxamidotryptamine desensitized 5HT7 receptor assessed as relaxation of substance P-induced contraction of Dunkin-Hartley guinea pig ileum. The class given is functional, tissue-based. Further details: concentration or dose not given beside the values. Particulars: Cavia porcellus, target entry is the homologue from another species.

Experiment [2] concerns the target 5-hydroxytryptamine receptor 7 (Rattus norvegicus, UniProt P32305). Put plainly: Displacement of [3H]LSD from rat recombinant 5HT7 receptor expressed in HEK293 cells. It counts as cell-based. Background: Displacement assays read how much labelled ligand stays bound in the presence of the test substance.
The target of experiment [3] is T1, 5-hydroxytryptamine receptor 1A (Rattus norvegicus, UniProt P19327).
T1 sequence (P19327 whole entry): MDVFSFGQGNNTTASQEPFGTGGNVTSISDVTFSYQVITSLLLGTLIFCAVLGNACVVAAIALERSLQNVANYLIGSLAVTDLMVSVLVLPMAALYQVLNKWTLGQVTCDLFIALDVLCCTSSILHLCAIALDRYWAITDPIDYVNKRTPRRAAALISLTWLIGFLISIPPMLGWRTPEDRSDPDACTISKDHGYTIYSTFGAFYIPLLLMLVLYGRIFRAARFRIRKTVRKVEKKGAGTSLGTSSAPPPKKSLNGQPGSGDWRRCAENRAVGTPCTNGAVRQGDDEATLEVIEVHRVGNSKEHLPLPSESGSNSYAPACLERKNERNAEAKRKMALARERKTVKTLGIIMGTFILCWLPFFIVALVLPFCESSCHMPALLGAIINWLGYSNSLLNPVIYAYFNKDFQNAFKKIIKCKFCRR
Put plainly: Displacement of [3H]8-OH-DPAT from 5HT1A receptor in Wistar Han rat hippocampal membranes. The class given is cell membranes, Membrane.

Experiment [4] is filed under the species Rattus norvegicus. The experiment in a line: Selectivity for rat 5HT7 receptor over rat 5HT2A receptor.
For experiment [5], the species on record is Rattus norvegicus. The experiment in a line: Selectivity for rat 5HT7 receptor over rat 5HT1A receptor.
Experiment [6] has as its target 5-hydroxytryptamine receptor 2A (Rattus norvegicus, UniProt P14842). Put plainly: (§1) Displacement of [3H]ketanserin from 5HT2A receptor in Wistar Han rat cortex membranes. The class given is cell membranes, Membrane.
For experiment [7], the target named is 5-hydroxytryptamine receptor 2A (Rattus norvegicus) (UniProt P14842). The description is as §1. The class given is cell membranes. Conditions: Membrane.
5-hydroxytryptamine receptor 2A (Rattus norvegicus), sequence (P14842 whole entry): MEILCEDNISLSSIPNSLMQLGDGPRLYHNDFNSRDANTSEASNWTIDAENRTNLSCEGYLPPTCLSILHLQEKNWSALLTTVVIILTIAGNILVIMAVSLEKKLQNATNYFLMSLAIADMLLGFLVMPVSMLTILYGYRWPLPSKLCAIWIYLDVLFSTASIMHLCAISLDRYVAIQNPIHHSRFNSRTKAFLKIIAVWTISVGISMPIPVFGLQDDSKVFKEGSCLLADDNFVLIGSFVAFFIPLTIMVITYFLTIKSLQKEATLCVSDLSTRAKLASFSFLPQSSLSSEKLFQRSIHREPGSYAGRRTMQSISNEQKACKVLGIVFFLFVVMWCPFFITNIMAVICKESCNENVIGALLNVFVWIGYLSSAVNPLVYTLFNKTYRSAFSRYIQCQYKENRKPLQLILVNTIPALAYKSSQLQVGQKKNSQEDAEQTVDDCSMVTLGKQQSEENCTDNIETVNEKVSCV

5-hydroxytryptamine receptor 7 (Rattus norvegicus, UniProt P32305), sequence (P32305 whole entry): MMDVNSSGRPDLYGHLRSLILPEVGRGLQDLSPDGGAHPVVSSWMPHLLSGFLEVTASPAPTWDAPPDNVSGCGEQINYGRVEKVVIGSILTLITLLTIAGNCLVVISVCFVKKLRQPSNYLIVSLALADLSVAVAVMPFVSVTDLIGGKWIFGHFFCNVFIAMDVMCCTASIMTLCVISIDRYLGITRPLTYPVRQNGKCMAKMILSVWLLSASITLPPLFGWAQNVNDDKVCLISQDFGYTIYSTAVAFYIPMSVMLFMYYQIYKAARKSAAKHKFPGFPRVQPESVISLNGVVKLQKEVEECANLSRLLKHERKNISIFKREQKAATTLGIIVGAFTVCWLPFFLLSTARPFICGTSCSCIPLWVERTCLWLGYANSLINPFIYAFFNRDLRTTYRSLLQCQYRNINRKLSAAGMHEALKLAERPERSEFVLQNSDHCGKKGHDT
5-hydroxytryptamine receptor 7 (Homo sapiens, UniProt P34969), sequence (P34969 whole entry): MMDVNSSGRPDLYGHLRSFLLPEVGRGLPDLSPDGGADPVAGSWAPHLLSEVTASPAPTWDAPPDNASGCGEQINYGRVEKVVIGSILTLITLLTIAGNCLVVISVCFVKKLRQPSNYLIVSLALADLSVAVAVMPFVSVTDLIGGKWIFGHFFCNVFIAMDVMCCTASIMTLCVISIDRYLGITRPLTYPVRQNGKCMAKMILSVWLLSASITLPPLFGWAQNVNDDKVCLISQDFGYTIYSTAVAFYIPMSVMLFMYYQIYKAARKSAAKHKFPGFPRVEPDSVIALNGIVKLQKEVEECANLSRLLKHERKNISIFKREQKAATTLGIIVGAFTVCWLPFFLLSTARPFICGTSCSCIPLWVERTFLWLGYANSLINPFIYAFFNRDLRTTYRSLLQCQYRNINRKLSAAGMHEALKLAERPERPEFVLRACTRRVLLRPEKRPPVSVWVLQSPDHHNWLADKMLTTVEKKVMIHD
5-hydroxytryptamine receptor 2A, sequence (P14842 whole entry): as the sequence (P14842 whole entry) above

In the case of `Cc1ccccc1N1CCN(CCCCCC(=O)NC2CCCc3ccccc32)CC1` (centres undefined), the Activity in experiment [1] turned out to be 98%.

By Ki is commonly meant the equilibrium dissociation constant of an inhibitor or competing ligand from its target. For `O=C(CCCCCN1CCN(c2nc3ccccc3[nH]2)CC1)NC1CCCc2ccccc21` (centres undefined), the Ki was found to be 356 nM in experiment [2] and 2600 nM in experiment [3].

`CC(=O)c1ccccc1N1CCN(CCCCCC(=O)NC2CCCc3ccccc32)CC1` (centres undefined): the Activity in experiment [1] worked out at 79%.

For `COc1ccc2oc(N3CCN(CCCCCC(=O)NC4CCCc5ccccc54)CC3)nc2c1` (centres undefined), the Ki in experiment [2] was 704 nM.

On to `COc1ccccc1N1CCN(CCCCCC(=O)NC2CCCc3ccccc32)CC1` (centres undefined), for which the Activity in experiment [1] was 91%.

With `CSc1ccccc1N1CCN(CCCCCC(=O)NC2CCCc3ccccc32)CC1` (centres undefined), the results for the Selectivity ratio in the experiment listed under Rattus norvegicus [4] and in the experiment filed under Rattus norvegicus [5] were greater than 1000 and 200, respectively. Also, the Activity in experiment [1] came out at 100%.

On to `COc1ccccc1N1CCN(CC(=O)NC2CCCc3c(OC)cccc32)CC1` (centres undefined), for which the Ki in experiment [2] is greater than 1000 nM.

On to `O=C(CCCCCN1CCN(c2ccccc2O)CC1)NC1CCCc2ccccc21` (centres undefined), for which the Activity in experiment [1] turned out to be 0%.

As for `NCCc1c[nH]c2ccc(C(N)=O)cc12`, in experiment [1], the Activity stood at 100%.

Take `O=C(CCCCCN1CCN(c2noc3ccccc23)CC1)NC1CCCc2ccccc21` (centres undefined): the figures for the Ki in experiment [2] and in experiment [3] were 125 nM and 3900 nM, respectively.

For the compound `NC(=O)c1ccccc1N1CCN(CCCCCC(=O)NC2CCCc3ccccc32)CC1` (centres undefined), the Ki in experiment [6] is greater than 4000 nM. Besides, the Activity in experiment [7] is 9%.

Turning to `O=C(CCCCCN1CCN(c2nc3ccccc3o2)CC1)NC1CCCc2ccccc21` (centres undefined), in experiment [2], the Ki came out at 820 nM.

`CS(=O)(=O)c1ccccc1N1CCN(CCCCCC(=O)NC2CCCc3ccccc32)CC1` (centres undefined): the Ki in experiment [6] is greater than 4000 nM. The Activity in experiment [7] worked out at 38%.

These data come from ChEMBL document CHEMBL1149286 (J Med Chem, 2004).
